Consider 68 sequences from the supplement of paper PMC11208160.

The series can be described thus: recombinant UMI read abundance after kanamycin selection (control-corrected) (log10(CPM+1)); higher = more efficient recombination; extreme values may be limits of the assay; sequences stand for … in AGTGCAGAGAAAATCGGCCAGTTTTCTCTGCCTGCAGTCCGCATGCCGTGGGACCCCTTGGGTTCTAACCTGTTGCCTAGATTTATGCAGCGGACTGCCTTTCTCCCAAAGTGATAAACCGG…AGGTTGGTTTCACT; site = the 11-nt donor. Put shortly: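 Reported values are log10(CPM+1) from a pooled Escherichia coli screen of donor and donor-binding-loop pairs for the IS621 bridge recombinase. Selection used IPTG (0.07 mM) plus kanamycin, against unselected plating, each in two replicates. Recombinant UMIs were amplified across the donor–target junction, sequenced, converted to CPM, averaged over replicates and scaled by control-derived factors.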
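Further: IS621 bridge recombinase in Escherichia coli cells against a fixed T5 target plasmid.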

Take “TTATAAGCATGGACCGGTTTTCCCGGTAATCCGTATTTGAG (site TTATAAGCTCT)”: the “recombinant UMI read abundance (log10)” value is 1.65.
For “TTATACCCATGGACCGGTTTTCCCGGTAATCCGTATTTGAG (site TTATACCCTCT)”, the “recombinant UMI read abundance (log10)” value stood at 0.00206.
As for “TTATCATCATGGACCGGTTTTCCCGGTAATCCGTATTTGCT (site CGATCATCTAG)”, the “recombinant UMI read abundance (log10)” value came out at 0.595.
For the sequence “TTATCATCATGGACCGGTTTTCCCGGTAATCCGTATTTGCT (site TTATCATCTAG)”, the “recombinant UMI read abundance (log10)” value is 1.98.
“TTATGAGCATGGACCGGTTTTCCCGGTAATCCGTATTTGGG (site TAATGAGCTCC)”: the “recombinant UMI read abundance (log10)” value is 0.0152.
The result for “TTATGAGCATGGACCGGTTTTCCCGGTAATCCGTATTTGGG (site TCATGAGCTCC)” reads 0.0145; that for “TTATGAGCATGGACCGGTTTTCCCGGTAATCCGTATTTGGG (site TGATGAGCTCC)”, 0.0171; that for “TTATGAGCATGGACCGGTTTTCCCGGTAATCCGTATTTGGG (site TTATGAGCTCC)”, 0.0057.
In the case of “TTATGCGCATGGACCGGTTTTCCCGGTAATCCGTATTTGCC (site TTATGCGCTGG)”, the “recombinant UMI read abundance (log10)” value stood at 1.93.
“TTATTACCATGGACCGGTTTTCCCGGTAATCCGTATTTGGG (site TTATTACCTCC)”: the “recombinant UMI read abundance (log10)” value came to 0.0164.
As to “TTATTTACATGGACCGGTTTTCCCGGTAATCCGTATTTGAA (site TTATTTACTTT)”, the “recombinant UMI read abundance (log10)” value stood at 0.00385.
Turning to “TTCAACCCATGGACCGGTTTTCCCGGTAATCCGTATTTGGA (site TTCAACCCTTC)”, the “recombinant UMI read abundance (log10)” value was found to be 0.
Take “TTCAACTCATGGACCGGTTTTCCCGGTAATCCGTATTTGTC (site TTCAACTCTGA)”: the “recombinant UMI read abundance (log10)” value is 0.222.
Under “TTCAATTCATGGACCGGTTTTCCCGGTAATCCGTATTTGCC (site TACAATTCTGG)” stands 0.
The result for “TTCAATTCATGGACCGGTTTTCCCGGTAATCCGTATTTGCC (site TCCAATTCTGG)” reads 0.
Consider “TTCAATTCATGGACCGGTTTTCCCGGTAATCCGTATTTGCC (site TGCAATTCTGG)”, for which the “recombinant UMI read abundance (log10)” value was determined as 0.
As to “TTCAATTCATGGACCGGTTTTCCCGGTAATCCGTATTTGCC (site TTCAATTCTGG)”, the “recombinant UMI read abundance (log10)” value amounted to 0.
“TTCACGCCATGGACCGGTTTTCCCGGTAATCCGTATTTGAC (site TTCACGCCTGT)”: the “recombinant UMI read abundance (log10)” value is 0.
The result for “TTCACTTCATGGACCGGTTTTCCCGGTAATCCGTATTTGTG (site TTCACTTCTCA)” reads 0.00654; that for “TTCAGCTCATGGACCGGTTTTCCCGGTAATCCGTATTTGTT (site TTCAGCTCTAA)”, 0.00312; that for “TTCATGACATGGACCGGTTTTCCCGGTAATCCGTATTTGCG (site TTCATGACTCG)”, 0.
With “TTCCCGCCATGGACCGGTTTTCCCGGTAATCCGTATTTGCT (site TTCCCGCCTAG)”, the “recombinant UMI read abundance (log10)” value came to 0.552.
Under “TTCCTCACATGGACCGGTTTTCCCGGTAATCCGTATTTGCT (site TTCCTCACTAG)” stands 0.293; under “TTCGAGACATGGACCGGTTTTCCCGGTAATCCGTATTTGCA (site TTCGAGACTTG)”, 0.725; under “TTCGCCTCATGGACCGGTTTTCCCGGTAATCCGTATTTGAT (site TTCGCCTCTAT)”, 0.521.
On to “TTCGCGACATGGACCGGTTTTCCCGGTAATCCGTATTTGAA (site TTCGCGACTTT)”, for which the “recombinant UMI read abundance (log10)” value was found to be 0.0402.
The result for “TTCGCTTCATGGACCGGTTTTCCCGGTAATCCGTATTTGTG (site TTCGCTTCTCA)” reads 0.
Turning to “TTCGGCACATGGACCGGTTTTCCCGGTAATCCGTATTTGAG (site TTCGGCACTCT)”, the “recombinant UMI read abundance (log10)” value is 0.00333.
Turning to “TTCGGGGCATGGACCGGTTTTCCCGGTAATCCGTATTTGTC (site TTCGGGGCTGA)”, the “recombinant UMI read abundance (log10)” value worked out at 0.
As to “TTCGTCCCATGGACCGGTTTTCCCGGTAATCCGTATTTGTC (site TTCGTCCCTGA)”, the “recombinant UMI read abundance (log10)” value was 0.
“TTCTACACATGGACCGGTTTTCCCGGTAATCCGTATTTGCT (site ATCTACACTAG)”: the “recombinant UMI read abundance (log10)” value is 0.34.
As for “TTCTACACATGGACCGGTTTTCCCGGTAATCCGTATTTGCT (site CTCTACACTAG)”, the “recombinant UMI read abundance (log10)” value was found to be 1.12.
Take “TTCTACACATGGACCGGTTTTCCCGGTAATCCGTATTTGCT (site GTCTACACTAG)”: the “recombinant UMI read abundance (log10)” value worked out at 0.569.
For “TTCTACACATGGACCGGTTTTCCCGGTAATCCGTATTTGCT (site TTCTACACTAG)”, the “recombinant UMI read abundance (log10)” value is 1.16.
As to “TTCTAGGCATGGACCGGTTTTCCCGGTAATCCGTATTTGGT (site TACTAGGCTAC)”, the “recombinant UMI read abundance (log10)” value amounted to 0.00535.
For “TTCTAGGCATGGACCGGTTTTCCCGGTAATCCGTATTTGGT (site TCCTAGGCTAC)”, the “recombinant UMI read abundance (log10)” value was determined as 0.0191.
For the sequence “TTCTAGGCATGGACCGGTTTTCCCGGTAATCCGTATTTGGT (site TGCTAGGCTAC)”, the “recombinant UMI read abundance (log10)” value is 0.0112.
Regarding “TTCTAGGCATGGACCGGTTTTCCCGGTAATCCGTATTTGGT (site TTCTAGGCTAC)”, the “recombinant UMI read abundance (log10)” value stood at 0.0102.
For “TTCTAGTCATGGACCGGTTTTCCCGGTAATCCGTATTTGAC (site TTCTAGTCTGT)”, the “recombinant UMI read abundance (log10)” value amounted to 0.
“TTCTCCGCATGGACCGGTTTTCCCGGTAATCCGTATTTGAA (site TTCTCCGCTTT)”: the “recombinant UMI read abundance (log10)” value stood at 0.0825.
Under “TTCTCCTCATGGACCGGTTTTCCCGGTAATCCGTATTTGTT (site TTCTCCTCTAA)” stands 0.151; under “TTCTCTTCATGGACCGGTTTTCCCGGTAATCCGTATTTGTG (site TTCTCTTCTCA)”, 0.00971; under “TTCTGGGCATGGACCGGTTTTCCCGGTAATCCGTATTTGCA (site TTCTGGGCTTG)”, 0.345.
In the case of “TTCTGTCCATGGACCGGTTTTCCCGGTAATCCGTATTTGCG (site TTCTGTCCTCG)”, the “recombinant UMI read abundance (log10)” value came out at 0.00535.
For the sequence “TTCTTCCCATGGACCGGTTTTCCCGGTAATCCGTATTTGGC (site TTCTTCCCTGC)”, the “recombinant UMI read abundance (log10)” value is 0.
Take “TTCTTGACATGGACCGGTTTTCCCGGTAATCCGTATTTGCT (site TACTTGACTAG)”: the “recombinant UMI read abundance (log10)” value is 0.126.
Consider “TTCTTGACATGGACCGGTTTTCCCGGTAATCCGTATTTGCT (site TCCTTGACTAG)”, for which the “recombinant UMI read abundance (log10)” value came out at 0.513.
For the sequence “TTCTTGACATGGACCGGTTTTCCCGGTAATCCGTATTTGCT (site TGCTTGACTAG)”, the “recombinant UMI read abundance (log10)” value was 0.
Turning to “TTCTTGACATGGACCGGTTTTCCCGGTAATCCGTATTTGCT (site TTCTTGACTAG)”, the “recombinant UMI read abundance (log10)” value stood at 0.68.
For “TTGAACACATGGACCGGTTTTCCCGGTAATCCGTATTTGAC (site TTGAACACTGT)”, the “recombinant UMI read abundance (log10)” value came out at 0.849.
For the sequence “TTGAATACATGGACCGGTTTTCCCGGTAATCCGTATTTGCA (site TAGAATACTTG)”, the “recombinant UMI read abundance (log10)” value turned out to be 1.77.
“TTGAATACATGGACCGGTTTTCCCGGTAATCCGTATTTGCA (site TCGAATACTTG)”: the “recombinant UMI read abundance (log10)” value turned out to be 0.
For the sequence “TTGAATACATGGACCGGTTTTCCCGGTAATCCGTATTTGCA (site TGGAATACTTG)”, the “recombinant UMI read abundance (log10)” value was determined as 0.
The result for “TTGAATACATGGACCGGTTTTCCCGGTAATCCGTATTTGCA (site TTGAATACTTG)” reads 0.467.
Under “TTGACAACATGGACCGGTTTTCCCGGTAATCCGTATTTGAC (site TTGACAACTGT)” stands 1.62; under “TTGACTCCATGGACCGGTTTTCCCGGTAATCCGTATTTGCT (site TTGACTCCTAG)”, 0.111; under “TTGAGCACATGGACCGGTTTTCCCGGTAATCCGTATTTGGA (site TTGAGCACTTC)”, 0.207.
In the case of “TTGCATGCATGGACCGGTTTTCCCGGTAATCCGTATTTGGT (site ATGCATGCTAC)”, the “recombinant UMI read abundance (log10)” value is 0.00895.
Regarding “TTGCATGCATGGACCGGTTTTCCCGGTAATCCGTATTTGGT (site CTGCATGCTAC)”, the “recombinant UMI read abundance (log10)” value came out at 0.00328.
In the case of “TTGCATGCATGGACCGGTTTTCCCGGTAATCCGTATTTGGT (site GTGCATGCTAC)”, the “recombinant UMI read abundance (log10)” value turned out to be 0.0185.
Take “TTGCATGCATGGACCGGTTTTCCCGGTAATCCGTATTTGGT (site TTGCATGCTAC)”: the “recombinant UMI read abundance (log10)” value is 0.317.
For the sequence “TTGCGGGCATGGACCGGTTTTCCCGGTAATCCGTATTTGTC (site TTGCGGGCTGA)”, the “recombinant UMI read abundance (log10)” value worked out at 2.15.
“TTGCTACCATGGACCGGTTTTCCCGGTAATCCGTATTTGAA (site TTGCTACCTTT)”: the “recombinant UMI read abundance (log10)” value worked out at 0.0119.
In the case of “TTGCTCACATGGACCGGTTTTCCCGGTAATCCGTATTTGTC (site TTGCTCACTGA)”, the “recombinant UMI read abundance (log10)” value came to 2.25.
Under “TTGCTGACATGGACCGGTTTTCCCGGTAATCCGTATTTGCG (site TTGCTGACTCG)” stands 1.33; under “TTGCTGACATGGACCGGTTTTCCCGGTAATCCGTATTTGTG (site TTGCTGACTCA)”, 0.12; under “TTGGAAACATGGACCGGTTTTCCCGGTAATCCGTATTTGCA (site ATGGAAACTTG)”, 0.
In the case of “TTGGAAACATGGACCGGTTTTCCCGGTAATCCGTATTTGCA (site CTGGAAACTTG)”, the “recombinant UMI read abundance (log10)” value amounted to 1.21.
